Experimental data: patent US20240263142A1, “HUMAN OVARIAN CANCER NIRAPARIB-RESISTANT CELL STRAIN AND USE THEREOF” (WOMEN’S HOSPITAL, ZHEJIANG UNIVERSITY SCHOOL OF MEDICINE, priority 2022, published 2024)
Where two headings read alike, the source gives them in different places.

Columns and labels:
A2780-NiraR cells = experiment: CCK-8 cytotoxicity experiment on Niraparib-resistant A2780-NiraR cells (resistance index, stability of resistance); format: cell-based, human; conditions: for Drug resistance index (RI) = IC50 of drug-resistant cells/IC50 of parental cells: A2780-NiraR vs A2780; for IC50: Homo sapiens
Description: (§1) A cell counting kit-8 (CCK-8) of Shanghai Beyotime Biotechnology Co., Ltd. (C0038) was used in the cytotoxicity experiment. Cells in logarithmic growth phase were collected, and the concentration of cell suspension was adjusted to 5×10^4 cells/ml; 100 μl of the cell suspension was added to each well of 96-well plate, and the density of the cells to be tested was 5000 cells/well; cultures were incubated overnight in the incubator with 5 vol % CO2 at 37° C. until the cells were grown as adherent monolayers, and then drugs with concentrations of 1×10^−3-100 μM were added respectively; 3 replicate wells were set for each concentration; OD values were determined after 72 h of drug treatment; 10 μl CCK-8 solution was added to each well; after further incubation in the cell incubator for 2 h, the absorbance was measured at 450 nm using a microplate reader (Bio-Rad, Model 680), as shown in FIG. 3. The IC50 of the drug was calculated.
Resistance index (RI)=IC50 of drug-resistant cells/IC50 of parental cells.
After the establishment of A2780-NiraR cell strain, the drug resistance was re-tested after cell resuscitation following 3-month drug-withdrawal culture and 6-month liquid nitrogen cryopreservation. The procedure was the same as that of the resistance index determination in part 3.

A2780 cells = experiment: CCK-8 cytotoxicity experiment on parental A2780 cells; format: cell-based; conditions: Homo sapiens, 72 h drug treatment
Description: as §1

[1] = A2780-NiraR cells, 72 h drug treatment, CCK-8, read-out: IC50

SMILES	Resistance of A2780-NiraR cells in words (A2780-NiraR cells; A2780-NiraR cells)	Drug resistance index (RI) = IC50 of drug-resistant cells/IC50 of parental cells (A2780-NiraR cells)	IC50 (A2780-NiraR cells; A2780-NiraR after resuscitation following 3-month drug-withdrawal culture and 6-month liquid nitrogen cryopreservation, read-out: IC50 of A2780-NiraR on re-test)	IC50 (A2780-NiraR cells; [1])	IC50 (A2780 cells)
NC(=O)c1cccc2cn(-c3ccc([C@@H]4CCCNC4)cc3)nc12 [Niraparib]	highly resistant	8.274	24 µM	26.2 µM	3.17 µM
CC(=O)O[C@H]1C(=O)[C@@]2(C)[C@H]([C@H](OC(=O)c3ccccc3)[C@]3(O)C[C@H](OC(=O)[C@H](O)[C@@H](NC(=O)c4ccccc4)c4ccccc4)C(C)=C1C3(C)C)[C@]1(OC(C)=O)CO[C@@H]1C[C@@H]2O [Paclitaxel]	cross-resistant	31.02		0.318 µM	0.01 µM
